Experimental findings from PubChem BioAssay (NCI) are described below.

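Values below derive from 48-hour exposures of cells grown in 96-well plates, with endpoints linearly interpolated between the two concentrations bracketing the appropriate inhibition level. TGI is the concentration that stops growth completely.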

Among the test systems are 786-0 renal; ACHN renal; BT-549 breast; EKVX NSCLC; HCT-116 colon; HOP-62 NSCLC; HS 578T breast; K-562 leukemia; MALME-3M melanoma; NCI/ADR-RES ovarian; PC-3 prostate; SF-539 CNS; SK-MEL-5 melanoma; SR leukemia; SW-620 colon; TK-10 renal; UACC-257 melanoma; UACC-62 melanoma; MDA-MB-231 breast.
Holding throughout (assay): inhibition of tumour cell growth, NCI panel, 48 h

Take `CC1=NN(c2nc(N)nc(C(C)Sc3cc(Cl)c(C)cc3S(N)(=O)=O)n2)C(C)(C)C1` (stereo unspecified): the TGI in the assay with 786-0 renal, with ACHN renal, in the assay on BT-549 breast, in the assay on EKVX NSCLC, in the assay on HCT-116 colon and in the assay with HOP-62 NSCLC was more than 10 µM each time. The TGI in the assay with HS 578T breast, in the assay on K-562 leukemia, in the assay on MALME-3M melanoma, with NCI/ADR-RES ovarian, in the assay with PC-3 prostate and in the assay with SF-539 CNS was more than 10 µM throughout. The TGI in the assay on SK-MEL-5 melanoma, with SR leukemia, in the assay with SW-620 colon, in the assay with TK-10 renal and in the assay on UACC-257 melanoma was more than 10 µM throughout.
Consider `CCCCCCc1cc2cc(C(=O)Nc3ccccc3F)c(=N)oc2cc1O`, for which the TGI in the assay with 786-0 renal amounted to 24.9 µM; in the assay on ACHN renal, 25.6 µM; in the assay with BT-549 breast, 23.2 µM; in the assay with EKVX NSCLC, 32.3 µM; in the assay with HCT-116 colon it was 20.6 µM; in the assay on HOP-62 NSCLC, 31.8 µM. For the same molecule, the TGI in the assay with HS 578T breast was 63.8 µM; in the assay on K-562 leukemia, more than 100 µM; in the assay on MALME-3M melanoma, 57.6 µM; in the assay with NCI/ADR-RES ovarian it was 16.8 µM; in the assay with PC-3 prostate it was 26.8 µM; with SF-539 CNS, 39.3 µM. The TGI in the assay on SK-MEL-5 melanoma was 12.8 µM; with SR leukemia, 50.2 µM; in the assay with SW-620 colon it was more than 100 µM; with UACC-257 melanoma, 42.2 µM; in the assay on UACC-62 melanoma, 36.1 µM.
Turning to `O=c1n(CCCN2CCN(c3cccc(Cl)c3)CC2)nc2n1-c1ccc3ccccc3c1SC2`, the TGI with 786-0 renal, with BT-549 breast, with EKVX NSCLC, with HCT-116 colon, in the assay on HOP-62 NSCLC and in the assay with HS 578T breast was more than 100 µM each time. The TGI in the assay with K-562 leukemia, in the assay on NCI/ADR-RES ovarian, with PC-3 prostate, in the assay on SF-539 CNS, with SK-MEL-5 melanoma and in the assay with SR leukemia was more than 100 µM throughout. Besides, the TGI in the assay on SW-620 colon, in the assay with TK-10 renal, in the assay with UACC-257 melanoma and in the assay with UACC-62 melanoma was more than 100 µM throughout.
Consider `CC/C(Cl)=N\OC(=O)Nc1ccccc1OC(F)(F)F`, for which the TGI in the assay on 786-0 renal was 23.5 µM; in the assay on ACHN renal, 3.69 µM; in the assay with BT-549 breast, 11.5 µM; in the assay on EKVX NSCLC it was 15.9 µM; in the assay with HCT-116 colon it was 27 µM; in the assay with HOP-62 NSCLC, 37.3 µM. Moreover, the TGI in the assay with HS 578T breast is more than 68.2 µM; in the assay with K-562 leukemia, 4.55 µM; in the assay on MALME-3M melanoma, 17.6 µM; in the assay on MDA-MB-231 breast, 34.2 µM; in the assay on NCI/ADR-RES ovarian, 35.5 µM; with PC-3 prostate it was 33.5 µM. Further, the TGI in the assay with SF-539 CNS was 31 µM; in the assay on SK-MEL-5 melanoma, 22.1 µM; with TK-10 renal, 23.8 µM; in the assay with UACC-257 melanoma it was 32.8 µM; in the assay with UACC-62 melanoma, 37.1 µM.
As for `COc1cc(C2SCC(=O)N2c2ccc(-c3ccc(-n4c(-c5ccccc5)nc5ccccc5c4=O)cc3)cc2)ccc1O` (stereo unspecified), the TGI in the assay on 786-0 renal, in the assay with ACHN renal, in the assay with BT-549 breast, in the assay on EKVX NSCLC, with HCT-116 colon and in the assay on HOP-62 NSCLC was more than 100 µM in each case. The TGI with HS 578T breast, in the assay with K-562 leukemia, in the assay with MALME-3M melanoma, in the assay on MDA-MB-231 breast, in the assay with NCI/ADR-RES ovarian and in the assay with PC-3 prostate was more than 100 µM in each case. Besides, the TGI in the assay on SF-539 CNS, in the assay on SK-MEL-5 melanoma, in the assay on SW-620 colon, in the assay on TK-10 renal, in the assay with UACC-257 melanoma and in the assay with UACC-62 melanoma was more than 100 µM in each case.
Take `OC(c1ccc(F)cc1)C(F)(F)c1nc(-c2ccccc2)no1` (stereo unspecified): the TGI in the assay on 786-0 renal turned out to be 44.2 µM; with ACHN renal it was 67.2 µM; in the assay with BT-549 breast, 36.8 µM; with EKVX NSCLC, 63.7 µM; in the assay on HCT-116 colon, 36.7 µM; with HS 578T breast, 63.9 µM. Further, the TGI in the assay on MALME-3M melanoma was 35 µM; in the assay on MDA-MB-231 breast it was 42.8 µM; in the assay with NCI/ADR-RES ovarian, more than 100 µM; in the assay with PC-3 prostate it was 63.4 µM; in the assay on SW-620 colon, 58.9 µM; in the assay with TK-10 renal, more than 100 µM. Besides, the TGI in the assay with UACC-257 melanoma was 43.4 µM; with UACC-62 melanoma it was 37.7 µM.
As to `COc1cc2c(c(N)c1OC)C(=O)/C(=C/c1cc(C)c(O)c(C)c1)C2`, the TGI in the assay on 786-0 renal was more than 100 µM; with ACHN renal, more than 100 µM; with BT-549 breast it was more than 100 µM; with EKVX NSCLC, more than 100 µM; with HCT-116 colon, 2.24 µM; in the assay on HOP-62 NSCLC it was more than 60.2 µM. The TGI in the assay on MDA-MB-231 breast is more than 100 µM; in the assay on NCI/ADR-RES ovarian, more than 100 µM; in the assay with PC-3 prostate it was more than 100 µM; in the assay on SK-MEL-5 melanoma, more than 32.7 µM; in the assay with SR leukemia, more than 100 µM; in the assay on SW-620 colon, more than 100 µM. Moreover, the TGI in the assay on TK-10 renal, in the assay with UACC-257 melanoma and with UACC-62 melanoma was more than 100 µM in each case.
For `O=c1c2c(sc3ccccc13)NCN(CCc1ccccc1)C2`, the TGI in the assay with 786-0 renal, in the assay on ACHN renal, in the assay with BT-549 breast, in the assay with EKVX NSCLC, in the assay on HCT-116 colon and in the assay on HOP-62 NSCLC was more than 100 µM each time. For the same molecule, the TGI is 40.8 µM in the assay with K-562 leukemia; more than 100 µM in the assay with MALME-3M melanoma; 77.5 µM in the assay with MDA-MB-231 breast; 99 µM in the assay with NCI/ADR-RES ovarian; more than 100 µM in the assay with PC-3 prostate; more than 100 µM in the assay with SF-539 CNS. Also, the TGI was 29 µM in the assay with SK-MEL-5 melanoma; more than 100 µM in the assay with SR leukemia; more than 100 µM in the assay on SW-620 colon; more than 100 µM in the assay with UACC-257 melanoma; more than 100 µM in the assay on UACC-62 melanoma.
